One experiment relates to VASP. The experiment is described as follows: VASP phosphorylation by Western blot in ECs. The class given is cell-based. The procedure:
Cell extracts were prepared, electrophoresed under denaturing conditions (10–12.5% polyacrylamide gels), and transferred into polyvinyldifluoridine membranes (Immobilon P™; Millipore). HO-1 was detected using a rabbit anti-human HO-1 polyclonal antibody (StressGen Biotechnologies). Vasodilatator-stimulated phosphoprotein (VASP) was detected using a rabbit anti-human VASP polyclonal antibody (Calbiochem-Novabiochem). […] Primary antibodies were detected using horseradish peroxidase-conjugated donkey anti-rabbit or goat anti-mouse IgG secondary antibodies (Pierce Chemical Co.). Peroxidase was visualized using the enhanced chemiluminescence assay (Amersham Pharmacia Biotech) according to the manufacturer's instructions, and stored in the form of photoradiographs (Biomax™ MS; Eastman Kodak Co.). […] The amount of phosphorylated ERK, JNK, and p38 MAPK was quantified using ImageQuant® software (Molecular Dynamics). […] Phosphorylated ERK, JNK, and p38 MAPK were normalized to the total amount of total ERK, JNK, and p38 MAPK detected in the same membrane.
Most biological functions attributed to CO have been linked to its ability to bind guanylcyclase and increase the generation of cGMP. […] (B) Activation of guanylcyclase was monitored in BAECs by analyzing the phosphorylation of VASP. […] (D) Phosphorylation of VASP was analyzed by Western blot as described above in B. N.T., nontreated. […]

The next experiment deals with HO enzymatic activity. The experiment is described as follows: HO enzymatic activity (bilirubin generation in microsomes) of transplanted hearts. Type of experiment: in vivo, mouse hearts transplanted into rats. The conditions noted are these: 2 days after transplantation. The procedure: HO enzymatic activity was measured by bilirubin generation in heart and liver microsomes. Animals were sacrificed, and the liver and hearts were flushed with ice-cold PBS and frozen at −70° C. until used. Organs were homogenized in four volumes of sucrose (250 mM) Tris-HCl (10 mM/L) buffer (pH 7.4) on ice and centrifuged (28,000 RPM 3×, 20 min, 4° C.). The supernatant was centrifuged (105,000 RPM 3×, 60 min, 4° C.), and the microsomal pellet was resuspended in MgCl2 (2 mM)-potassium phosphate (100 mM) buffer (pH 7.4) and sonicated on ice. The samples (1 mg of protein) were added to the reaction mixture (400 îl) containing rat liver cytosol (2 mg of protein), hemin (50 îM), glucose-6-phosphate (2 mM), glucose-6-phosphate dehydrogenase (0.25 U), and NADPH (0.8 mM) for 60 min at 37° C. in the dark. The formed bilirubin was extracted with chloroform and, OD was measured at 464–530 nm (extinction coefficient, 40 mM/cm for bilirubin). Enzyme activity is expressed as picomoles of bilirubin formed per milligram of protein per 60 min (pmol/mg/h). The protein concentration was determined by the bicinchoninic acid protein assay (Pierce, Georgetown). The background was ˜5 pmol/mg/h. […] Carboxyhemoglobin was measured 2 days after transplantation by using a Corning 865 blood gas analyzer (Clinical Chemistry, Massachusetts General Hospital, Boston, Mass.).

Experiment [1] relates to mouse 2F–2B endothelial cells. The experiment is described as follows: Cellular ELISA for anti-graft Abs and rat C3 binding to mouse endothelial cells. Type of experiment: in vivo. Particulars: rats with mouse cardiac graft under CVF plus CsA. The procedure: Serum levels of rat anti-mouse Abs were measured by cellular-based indirect ELISA. The mouse 2F–2B endothelial cell line (CRL-2168; American Type Culture Collection (ATCC), Manassas, Va.) was used as an antigenic target. Briefly, 2F–2B cells were cultured in DMEM (Life Technologies, Rockville, Md.), 10% FCS, 100 U/ml penicillin, and 100 îg/ml streptomycin (Life Technologies). Glutaraldehyde-fixed 2F–2B cells were incubated (1 h, 37° C.) in the presence of rat serum serially diluted in PBS 0.05% Tween 20 (Sigma) and rat anti-mouse Abs were detected by using mouse anti-rat IgM (MARM-4), IgG1 (MARG1-2), IgG2a (Marg2a-1), IgG2b (MARGb-8), or IgG2c (MARG2c-5) (kind gifts from Prof. H. Bazin, University of Louvain, Brussels, Belgium). Mouse anti-rat Abs were detected by using HRP-labeled goat anti-mouse Fab′ depleted of anti-rat Ig cross reactivity (0.1 îg/ml, 1 h, room temperature; Pierce, Rockford, Ill.). […] Absorbance was measured at Î=490 nm. The relative amount of circulating anti-graft Abs in the serum was expressed as OD (Î=490) taken from one serial dilution in the linear range of the assay (1:32–1:1024).
Binding of rat C3 to mouse endothelial cells was measured by a modified cellular ELISA with mouse 2F–2B endothelial cells as antigenic targets (Miyatake et al, J. Immunol. 160:4114, 1998). Briefly, nonfixed 2F–2B endothelial cells were incubated in the presence of rat serum serially diluted in GVB^++ buffer (1 h, 37° C.). Cells were fixed in PBS, 0.05% glutaraldehyde, and rat C3 deposition was detected by using a mouse anti-rat C3 mAb (Serotec).

On to `Nc1nc2c(nc(Br)n2[C@@H]2O[C@@H]3COP(=O)(O)O[C@H]3[C@H]2O)c(=O)[nH]1` [8-Br-cGMP, 8-bromoguanosine-3′-5′-cyclic-monophosphate], for which the VASP phosphorylation result in the experiment with VASP is “induce VASP phosphorylation”.

As to `[C-]#[O+]` [CO, carbon monoxide], the “total HO enzymatic activity in transplanted mouse hearts” value in the experiment on HO enzymatic activity (rats treated with SnPPIX and exposed to CO) was 43.6 ± 7.57 pmol/mg/h.

On to `C=CC1=C(C)c2cc3[n-]c(cc4[n-]c(cc5nc(cc1n2)C(C)=C5C=C)c(C)c4CCC(=O)O)c(CCC(=O)O)c3C.[Fe+2]` [FePPIX, iron protoporphyrin], for which, in experiment [1], the “influence on C3 deposition on mouse endothelial cells” value is recorded as “Neither SnPPIX or FePPIX treatment influenced C3 deposition” and the “influence on anti-mouse Ab (IgM) response” value is recorded as “did not influence this Ab response”.

For the compound `O=c1onc2cnc3ccccc3n12` [ODQ, 1H[1,2,4]oxadiazolo[4,3-α]quinoxalin-1], in the experiment with VASP, the VASP phosphorylation result is “prevent constitutive VASP phosphorylation”.

As for `C=Cc1c2[n-]c(c1C)/C=c1\[n-]/c(c(C)c1C=C)=C\c1[n-]c(c(CCC(=O)O)c1C)C=c1[n-]/c(c(C)c1CCC(=O)O)=C\2.[Sn+4]` [SnPPIX, tin protoporphyrin IX], in experiment [1], the “influence on C3 deposition on mouse endothelial cells” value is listed as “Neither SnPPIX or FePPIX treatment influenced C3 deposition” and the “influence on anti-mouse Ab (IgM) response” value is on record as “did not influence this Ab response”. For the same compound, in the experiment on HO enzymatic activity, the “total HO enzymatic activity in transplanted mouse hearts” value was 32.37 ± 7.23 pmol/mg/h.

(Values after patent publication US7238469B2, “Carbon monoxide improves outcomes in tissue and organ transplants and suppresses apoptosis” (priority 2001, dated 2007).)
